Where two headings read alike, the source gives them in different places.
Assays:
avidin (AV) [1] = target: T1, avidin (AV) (Gallus gallus, UniProt P02701); test: Relaxation kinetics of unlabeled biotin reacting with the AV-HABA complex; assay type: binding; conditions: pH 8
T1 construct: purchased Calbiochem (La Jolla, CA)
Method: (§1) All of the following protein concentrations are presented on a binding site basis, thus in the case of the HABA association reactions for AV were measured at 23.0 ± 0.1°C with a concentration of 87 μM HABA and 7.7 μM AV. The AV-HABA relaxation reactions were conducted with a preformed AV-HABA complex made up of 200 μM HABA and 10 μM AV, flowed against varying amounts of B7 from 100 μM up to 4000 μM for a [HABA]/[B7] ratio that ranged from 0.05 to 2.
The relaxation experiments were prepared at concentrations in which HABA occupies all sites (AV-HABA4). Biotin replaces HABA relative to the koff of the dye as shown for the first step (Eq 1) and then repeated for all sites. Having greater affinity, B7 occupies all sites at the end of the reaction and the measured kon is related to the affinities of the ligand bound protein.
The reaction is monitored by the HABA absorbance changes at 500 nm as it is replaced by unlabeled B7; yielding the relaxation constant of the reaction (Relaxation, Eq 2) which contains information of the B7 association rate constant of the open binding site, k1AV−HABA3 to form a full saturated complex (AV-HABA4) and the dissociation rate of that full complex, k−1AV−HABA4 , to yield a complex with three HABA molecules (AV-HABA3). In the subsequent steps, B7 replaces HABA as the ligand but the release of HABA creates an unoccupied site that remains in the same state. In summary, the experiment was designed to acquire the pseudo-first order association rate constant of B7 binding ( konB ) to the solely free binding site in a complex occupied by three HABA molecules (AV-HABA3).
The reciprocal of the relaxation constant (1/Relaxation) is plotted vs. the [HABA]/[B] concentration ratio (Eq 3) allowing to calculate: k−1AV−HABA4 and k1AV−HABA3 by solving for the intercept ( 1/k−1AV−HABA4 ) and the respective slope: m=k1AV−HABA3/(k−1AV−HABA4∙konB) . The exponential decays were analyzed by the method of Foss. There was no departure from simple first order decay in the relaxation, justifying the use of the following model and equations.

avidin (AV) [2] = target: T1, avidin (AV); test: HABA association reaction for AV (stopped-flow absorbance at 500 nm); assay type: binding; conditions: 23°C
Method: as §1
These calculations have been described elsewhere and were acquired for the AB1 complexes. The HABA association reaction for AV was carried out under pseudo-first order conditions on a micro absorbance SF instrument equipped with a xenon arc lamp (described above) and a monochromator (model 82–410, Jarrel-Ash, Waltham, Mass.) set at 500 nm.

avidin (AV) [3] = target: T1, avidin (AV); conditions: pH 8; read-out: KD AV-HABA; cited from earlier work

T1 sequence (P02701 25-152): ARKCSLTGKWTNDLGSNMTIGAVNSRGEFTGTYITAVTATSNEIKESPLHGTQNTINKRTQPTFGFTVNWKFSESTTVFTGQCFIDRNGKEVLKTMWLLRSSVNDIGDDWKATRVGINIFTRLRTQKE

O=C(O)c1ccccc1N=Nc1ccc(O)cc1 [HABA, 2-(4’-hydroxyazobenzene)-benzoic acid]
Kd (avidin (AV) [1]; from k−1 and k1): 12.2 µM
k−1 AV−HABA4, HABA dissociation rate constant of the AV-HABA4 complex (avidin (AV) [1]; 23°C): 6.23 ± 0.11 s⁻¹
k1 AV−HABA3, HABA association rate for the final site (avidin (AV) [2]): 5.1 ± 0.1 × 10^5 M^-1s^-1
Kd (avidin (AV) [3]): 12 µM

— article PMC6394990, “Detailed characterization of the solution kinetics and thermodynamics of biotin, biocytin and HABA binding to avidin and streptavidin” (PLoS ONE, 2019)
